The target of one experiment is hTNALP A109 (Homo sapiens, UniProt P05186, G126A). Nature of the experiment: biochemical.
A further experiment has as its target hTNALP Q109 (Homo sapiens, UniProt P05186, G126Q). The experiment can be described thus: biochemical.
The target of another experiment is hTNALP A371 (Homo sapiens, UniProt P05186, Y388A). The experiment can be described thus: biochemical.
In a further experiment the target is hTNALP G434 (Homo sapiens, UniProt P05186, H451G). The experiment can be described thus: biochemical.
Chain of hTNALP G434 (P05186 18-501 H451G): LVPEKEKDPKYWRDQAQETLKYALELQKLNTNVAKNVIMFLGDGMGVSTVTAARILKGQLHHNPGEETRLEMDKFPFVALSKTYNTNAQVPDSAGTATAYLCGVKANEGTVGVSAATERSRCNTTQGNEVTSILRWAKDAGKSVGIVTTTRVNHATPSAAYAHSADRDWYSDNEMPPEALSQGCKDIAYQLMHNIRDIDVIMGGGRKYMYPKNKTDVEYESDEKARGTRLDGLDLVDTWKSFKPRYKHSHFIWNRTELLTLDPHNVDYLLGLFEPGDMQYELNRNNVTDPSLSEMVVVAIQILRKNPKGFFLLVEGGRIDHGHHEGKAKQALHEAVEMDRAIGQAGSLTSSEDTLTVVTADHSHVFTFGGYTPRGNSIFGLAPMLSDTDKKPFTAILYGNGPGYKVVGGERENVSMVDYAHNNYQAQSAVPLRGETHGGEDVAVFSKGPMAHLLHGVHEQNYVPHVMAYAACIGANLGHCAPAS
The next experiment addresses T1, hPLALP D165 (Homo sapiens, UniProt P05187, N187D).
T1 construct: made in house; host or cells: COS-7 (given only for the TNAP-Flag constructs)
Nature of the experiment: Ki of uncompetitive inhibitors (pNPP substrate). The note with it: hPLALP mutant D165; read-out: Ki for various inhibitors. The format is biochemical. The procedure:
(§1) In brief, samples of the enzymes were added to microtiter plates coated with M2 anti-FLAG antibody, and saturating activities with the substrate pNPP were measured in 1 M DEA/HCl buffer, pH 9.8, containing 1 mM MgCl2 and 20 .micro.M ZnCl2.

In the next experiment the target is T2, hPLALP R428 (Homo sapiens, UniProt P05187, D450R).
T2 construct: made in house; host or cells: COS-7 (given only for the TNAP-Flag constructs)
T2 sequence (P05187 23-506 D450R limits assumed): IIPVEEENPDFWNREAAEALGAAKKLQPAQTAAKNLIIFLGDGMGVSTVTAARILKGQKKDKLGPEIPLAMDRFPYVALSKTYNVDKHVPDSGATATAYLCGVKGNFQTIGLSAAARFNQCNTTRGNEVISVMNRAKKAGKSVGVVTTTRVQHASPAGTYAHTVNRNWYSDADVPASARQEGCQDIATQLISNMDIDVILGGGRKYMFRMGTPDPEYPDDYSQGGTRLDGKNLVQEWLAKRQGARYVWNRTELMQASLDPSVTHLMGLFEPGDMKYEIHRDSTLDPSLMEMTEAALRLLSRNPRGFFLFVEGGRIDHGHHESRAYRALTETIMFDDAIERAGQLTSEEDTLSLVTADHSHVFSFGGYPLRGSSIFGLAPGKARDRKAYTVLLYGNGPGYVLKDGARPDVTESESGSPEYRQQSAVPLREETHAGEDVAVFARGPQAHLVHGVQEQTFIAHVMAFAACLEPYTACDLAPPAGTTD
The experiment can be described thus: Ki of uncompetitive inhibitors (pNPP substrate). The format is biochemical. Conditions: hPLALP mutant R428; read-out: Ki for various inhibitors. The procedure:
as §1

The next experiment concerns the target T3, hPLALP (G108, G429) (Homo sapiens, UniProt P05187, E451G/Q130G).
T3 construct: made in house; host or cells: COS-7 (given only for the TNAP-Flag constructs)
The experiment can be described thus: Ki of uncompetitive inhibitors (pNPP substrate). The format is biochemical. The note with it: hPLALP mutant (G108, G429); read-out: Ki for various inhibitors. Here is the method:
as §1

A further experiment addresses T4, hPLALP (E107, G108) (Homo sapiens, UniProt P05187, F129E/Q130G).
T4 construct: made in house; host or cells: COS-7 (given only for the TNAP-Flag constructs)
Nature of the experiment: Ki of uncompetitive inhibitors (pNPP substrate). Type of experiment: biochemical. Conditions: hPLALP mutant (E107, G108); read-out: Ki for various inhibitors. Here is the method: as §1

The next experiment concerns the target T5, hPLALP (E107, G429) (Homo sapiens, UniProt P05187, E451G/F129E).
T5 construct: made in house; host or cells: COS-7 (given only for the TNAP-Flag constructs)
The experiment can be described thus: Ki of uncompetitive inhibitors (pNPP substrate). The format is biochemical. The note with it: hPLALP mutant (E107, G429); read-out: Ki for various inhibitors. The procedure:
as §1

The target of a further experiment is T6, hPLALP (R428, H429) (Homo sapiens, UniProt P05187, D450R/E451H).
T6 construct: made in house; host or cells: COS-7 (given only for the TNAP-Flag constructs)
T6 sequence (P05187 23-506 D450R/E451H limits assumed): as the sequence (P05187 23-506 D450R limits assumed) above, with E429H counted along it
The experiment can be described thus: Ki of uncompetitive inhibitors (pNPP substrate). Conditions: hPLALP mutant (R428, H429); read-out: Ki for various inhibitors. Type of experiment: biochemical. Here is the method: as §1

The target of the next experiment is T7, hPLALP H429 (Homo sapiens, UniProt P05187, E451H).
T7 construct: made in house; host or cells: COS-7 (given only for the TNAP-Flag constructs)
T7 sequence (P05187 23-506 E451H limits assumed): as the sequence (P05187 23-506 D450R limits assumed) above, with R428D, E429H counted along it
The experiment can be described thus: Ki of uncompetitive inhibitors (pNPP substrate). The format is biochemical. The note with it: hPLALP mutant H429; read-out: Ki for various inhibitors. Here is the method:
as §1

The target in the next experiment is T8, hPLALP G108 (Homo sapiens, UniProt P05187, Q130G).
T8 construct: made in house; host or cells: COS-7 (given only for the TNAP-Flag constructs)
T8 sequence (P05187 23-506 Q130G limits assumed): as the sequence (P05187 23-506 D450R limits assumed) above, with Q108G, R428D counted along it
The experiment can be described thus: Ki of uncompetitive inhibitors (pNPP substrate). Type of experiment: biochemical. Conditions: hPLALP mutant G108; read-out: Ki for various inhibitors. Here is the method:
as §1

Another experiment concerns the target T9, hPLALP (Homo sapiens, UniProt P05187).
T9 construct: made in house
Nature of the experiment: Ki of uncompetitive inhibitors (pNPP substrate). Type of experiment: biochemical. Conditions: read-out: Ki for various inhibitors. Here is the method: as §1

For another experiment, the target named is T10, hPLALP E107 (Homo sapiens, UniProt P05187, F129E).
T10 construct: made in house
T10 sequence (P05187 23-506 F129E limits assumed): as the sequence (P05187 23-506 D450R limits assumed) above, with F107E, R428D counted along it
The experiment can be described thus: Ki of uncompetitive inhibitors (pNPP substrate). Type of experiment: biochemical. The note with it: hPLALP mutant E107; read-out: Ki for various inhibitors. The procedure: as §1

The target in another experiment is T11, hPLALP G429 (Homo sapiens, UniProt P05187, E451G).
T11 construct: made in house; host or cells: COS-7 (given only for the TNAP-Flag constructs)
T11 sequence (P05187 23-506 E451G limits assumed): as the sequence (P05187 23-506 D450R limits assumed) above, with R428D, E429G counted along it
The experiment can be described thus: Ki of uncompetitive inhibitors (pNPP substrate). Conditions: hPLALP mutant G429; read-out: Ki for various inhibitors. The format is biochemical. The procedure: as §1

In another experiment the target is T12, hPLALP S119 (Homo sapiens, UniProt P05187, N141S).
T12 construct: made in house; host or cells: COS-7 (given only for the TNAP-Flag constructs)
T12 sequence (P05187 23-506 N141S limits assumed): as the sequence (P05187 23-506 D450R limits assumed) above, with N119S, R428D counted along it
The experiment can be described thus: Ki of uncompetitive inhibitors (pNPP substrate). The note with it: hPLALP mutant S119; read-out: Ki for various inhibitors. Type of experiment: biochemical. Here is the method: as §1

The target of another experiment is hTNALP N168 (Homo sapiens, UniProt P05186, D185N). Nature of the experiment: biochemical.
Chain of hTNALP N168 (P05186 18-501 D185N): as the sequence (P05186 18-501 H451G) above, with D168N, G434H counted along it
In the next experiment the target is hTNALP S434 (Homo sapiens, UniProt P05186, H451S). The experiment can be described thus: biochemical.
Chain of hTNALP S434 (P05186 18-501 H451S): as the sequence (P05186 18-501 H451G) above, with G434S counted along it
The target in a further experiment is hTNALP D433 (Homo sapiens, UniProt P05186, R450D). The experiment can be described thus: biochemical.
Chain of hTNALP D433 (P05186 whole entry R450D): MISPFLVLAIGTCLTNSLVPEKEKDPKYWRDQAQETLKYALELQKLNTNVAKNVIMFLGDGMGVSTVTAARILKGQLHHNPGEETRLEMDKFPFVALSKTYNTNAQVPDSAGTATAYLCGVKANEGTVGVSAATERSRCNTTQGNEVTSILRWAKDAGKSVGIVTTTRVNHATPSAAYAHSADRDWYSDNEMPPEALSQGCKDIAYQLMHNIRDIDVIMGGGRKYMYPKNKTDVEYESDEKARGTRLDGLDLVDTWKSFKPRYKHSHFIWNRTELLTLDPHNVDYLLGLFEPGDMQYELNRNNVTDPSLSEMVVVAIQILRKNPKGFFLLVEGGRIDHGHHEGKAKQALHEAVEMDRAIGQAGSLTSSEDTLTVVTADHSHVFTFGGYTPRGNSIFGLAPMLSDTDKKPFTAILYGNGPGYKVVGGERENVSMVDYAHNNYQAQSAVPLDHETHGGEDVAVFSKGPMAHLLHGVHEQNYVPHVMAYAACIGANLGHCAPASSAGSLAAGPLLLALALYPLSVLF
The target of the next experiment is hTNALP D120 (Homo sapiens, UniProt P05186, S137D). Nature of the experiment: biochemical.
Chain of hTNALP D120 (P05186 18-501 S137D): as the sequence (P05186 18-501 H451G) above, with S120D, G434H counted along it
For another experiment, the target named is T13, chTNALP (Gallus gallus, UniProt Q92058).
T13 sequence (Q92058 17-498): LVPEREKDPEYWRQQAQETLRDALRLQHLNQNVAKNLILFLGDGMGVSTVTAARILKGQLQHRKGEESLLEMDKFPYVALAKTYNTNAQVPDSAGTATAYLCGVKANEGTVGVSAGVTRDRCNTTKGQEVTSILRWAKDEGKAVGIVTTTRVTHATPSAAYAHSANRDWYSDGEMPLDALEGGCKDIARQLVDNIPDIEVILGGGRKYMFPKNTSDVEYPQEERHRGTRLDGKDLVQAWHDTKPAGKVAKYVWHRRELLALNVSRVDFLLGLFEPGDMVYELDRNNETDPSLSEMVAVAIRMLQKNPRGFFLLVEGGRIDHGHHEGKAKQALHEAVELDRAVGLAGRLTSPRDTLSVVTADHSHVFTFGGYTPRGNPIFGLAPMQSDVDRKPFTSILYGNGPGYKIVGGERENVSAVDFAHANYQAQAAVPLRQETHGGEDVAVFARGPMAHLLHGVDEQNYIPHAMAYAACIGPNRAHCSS
The experiment can be described thus: Ki of uncompetitive inhibitors (pNPP substrate). The format is biochemical, chicken. The note with it: read-out: Ki for various inhibitors. The text has this:
(See Kozlenkov A, et al., 2002). […] TNAP and PLAP structures were superimposed and the amino acid differences within a 12 Å radius around the catalytic Zn1 ion were pinpointed. The difference between human TNAP and chicken TNAP were also mapped because it is reported that chicken TNAP is much less susceptible to levamisol than is human TNAP. In total, six positions with amino acid differences were found, which could be clustered into two groups. […] In addition, […] and […] were also investigated.

For the next experiment, the target named is hTNALP N166 (Homo sapiens, UniProt P05186, D183N). The experiment can be described thus: biochemical.
Chain of hTNALP N166 (P05186 18-501 D183N): as the sequence (P05186 18-501 H451G) above, with D166N, G434H counted along it

Chain of hTNALP Q109 (P05186 18-501 G126Q): as the sequence (P05186 18-501 H451G) above, with G109Q, G434H counted along it
Chain of hTNALP A109 (P05186 18-501 G126A): as the sequence (P05186 18-501 H451G) above, with G109A, G434H counted along it
T1 sequence (P05187 23-506 N187D limits assumed): as the sequence (P05187 23-506 D450R limits assumed) above, with N165D, R428D counted along it
T9 sequence (P05187 23-506 limits assumed): as the sequence (P05187 23-506 D450R limits assumed) above, with R428D counted along it
T3 sequence (P05187 23-506 Q130G/E451G limits assumed): as the sequence (P05187 23-506 D450R limits assumed) above, with Q108G, R428D, E429G counted along it
T4 sequence (P05187 23-506 F129E/Q130G limits assumed): as the sequence (P05187 23-506 D450R limits assumed) above, with F107E, Q108G, R428D counted along it
T5 sequence (P05187 23-506 F129E/E451G limits assumed): as the sequence (P05187 23-506 D450R limits assumed) above, with F107E, R428D, E429G counted along it
Chain of hTNALP A371 (P05186 18-501 Y388A): as the sequence (P05186 18-501 H451G) above, with Y371A, G434H counted along it

In general, Ki refers to a measure of affinity in units of concentration, obtained from inhibition or displacement. With `N[C@@H](Cc1ccccc1)C(=O)O` [L-Phe, L-phenylalanine], the Ki on hTNALP A109 worked out at 20 ± 4 mM; on hTNALP Q109, 4 ± 1.1 mM; on hTNALP A371, 65 ± 24 mM; at hTNALP G434, 9.6 ± 1 mM; on hPLALP D165 it was 0.54 ± 0.04 mM; at hPLALP R428, 0.54 ± 0.05 mM. The Ki at hPLALP (G108, G429) was found to be 0.49 ± 0.06 mM; on hPLALP (E107, G108) it was 23 ± 2 mM; on hPLALP (E107, G429) it was 1 ± 0.16 mM; on hPLALP (R428, H429), 0.35 ± 0.04 mM; at hPLALP H429 it was 0.31 ± 0.03 mM; at hPLALP G108, 2.4 ± 0.3 mM. For the same compound, the inhibition constant (Ki) on hPLALP is 0.75 ± 0.05 mM; at hPLALP E107 it was 3.8 ± 0.4 mM; on hPLALP G429, 0.09 ± 0.01 mM; at hPLALP S119, 0.67 ± 0.08 mM; at hTNALP N168, 42 ± 6 mM; on hTNALP S434 it was 13 ± 2 mM. Besides, the Ki on hTNALP D433 worked out at 23 ± 5 mM; on hTNALP D120, 34 ± 4 mM; at chTNALP it was 11 ± 0.9 mM; at hTNALP N166, 32 ± 5 mM.

For the compound `N=C(N)NCCCC[C@H](N)C(=O)O` [L-hArg, L-homoarginine], the Ki at hTNALP A109 came to 1.3 ± 0.2 mM; at hTNALP Q109, 1.6 ± 0.1 mM; at hTNALP A371, 31 ± 3 mM; on hTNALP G434, 1.6 ± 0.2 mM; at hPLALP D165, 59 ± 25 mM; on hPLALP R428, 36 ± 4 mM. The Ki turned out to be 18 ± 2 mM on hPLALP (G108, G429); 12 ± 1.6 mM on hPLALP (E107, G108); 1.5 ± 0.2 mM on hPLALP (E107, G429); 14 ± 1 mM on hPLALP (R428, H429); 10.7 ± 1.5 mM at hPLALP H429; 60 ± 9 mM on hPLALP G108. For the same compound, the Ki at hPLALP was 59 ± 15 mM; on hPLALP E107, 5.7 ± 0.9 mM; at hPLALP G429, 12 ± 2 mM; on hPLALP S119, 61 ± 13 mM; at hTNALP N168, 1.8 ± 0.1 mM; on hTNALP S434 it was 1.6 ± 0.1 mM. The Ki on hTNALP D433 stood at 1.5 ± 0.2 mM; at hTNALP D120, 1.4 ± 0.1 mM; on chTNALP, 1.9 ± 0.2 mM; at hTNALP N166, 1.8 ± 0.1 mM.

The record behind these values is patent US20090142347A1, “Tissue-Nonspecific Alkaline Phosphatase (TNAP): a Therapeutic Target for Arterial Calcification” (THE BURNHAM INSTITUTE FOR MEDICAL RESEARCH, priority 2004, published 2009).
